Tests used:
Format in all cases: functional
[1] = tested on: Onchocerca lienalis; test: MMV: Percent motility assay at a compound concentration of 1.25e-5 M. Activity score legend: 3: Active, 2: Moderately active; 1: Inactive, 0: Toxic; details: at 12.5 µM
[2] = tested on: Onchocerca lienalis; test: MMV: Percent motility assay at a compound concentration of 3.1e-6 M. Activity score legend: 3: Active, 2: Moderately active; 1: Inactive, 0: Toxic; details: at 3.1 µM
[3] = tested on: Onchocerca lienalis; test: MMV: Percent motility assay at a compound concentration of 1.9e-7 M. Activity score legend: 3: Active, 2: Moderately active; 1: Inactive, 0: Toxic; details: at 0.19 µM
[4] = tested on: Onchocerca lienalis; test: MMV: Percent motility assay at a compound concentration of 7.8e-7 M. Activity score legend: 3: Active, 2: Moderately active; 1: Inactive, 0: Toxic; details: at 0.78 µM

Structure (SMILES) | Motility [1] [%] | Motility [2] [%] | Motility [3] [%] | Motility [4] [%]
COc1ccc(Nc2nc(N/N=C/c3ccc(O)cc3)nc(Nc3ccc([N+](=O)[O-])cc3)n2)cc1 | 100 | 100 | 100 | 100
O=C(NNc1cc(N2CCCC2)nc(N2CCCC2)n1)c1ccccc1 | 100 | 100 | 100 | 100
COC(=O)c1ccc(Cl)c2c1C1C=CCC1C(c1cccc3ccccc13)N2 (stereo not given) | 100 | 100 | 100 | 100
O=C(CCc1ccccc1)c1ccccc1OCC(O)CN1CCCCC1 (stereo not given) | 100 | 100 | 100 | 100
OC1=C2C(=Nc3ccccc3SC2c2ccccc2)c2ccccc21 (stereo not given) | 100 | 100 | 100 | 100
COC(=O)c1ccc(C2C3=C(O)CC(c4ccc(F)cc4)CC3=Nc3ccccc3N2C(=O)c2ccccc2)cc1 (stereo not given) | 100 | 100 | 100 | 100
CC(=O)c1sc(NC(=O)Nc2ccc(C)cc2C)nc1C | 100 | 100 | 100 | 100
Cn1c(C(=O)c2cccc3ccccc23)nc2ccccc21 | 100 | 100 | 100 | 100
O=C(Nc1ccc(-c2nc3ccccc3[nH]2)cc1)c1ccc(Cl)c(Cl)c1 | 100 | 100 | 100 | 100
OCCNc1nc(Nc2ccc(Cl)c(Cl)c2)nc2ccccc12 | 20 | 33.33 | 100 | 100
Nc1ccc(-c2nc3cc(Oc4ccc(Oc5ccc6[nH]c(-c7ccc(N)cc7)nc6c5)cc4)ccc3[nH]2)cc1 | 100 | 100 | 100 | 100
Cc1cc(N(C)C)nc(Nc2ccc(NC(=O)Nc3ccccc3)cc2)n1 | 100 | 100 | 100 | 100
COc1cc(C(=O)ON=C(N)Cc2cccc3ccccc23)cc(OC)c1OC | 100 | 100 | 100 | 100
Cc1ccc(Nc2nc(N)c3ccccc3n2)cc1Cl | 100 | 100 | 100 | 100
CCc1ccc(CNCC(O)c2ccccc2)cc1.Cl (stereo not given) | 100 | 100 | 100 | 100
Br.CCn1c2c(c(=N)c3c1CCC3)CCCC2 | 100 | 100 | 100 | 100
CCCn1c(=N)c(C(=O)NC2CCCCC2)cc2c(=O)n3cccc(C)c3nc21 | 100 | 100 | 100 | 100
Nc1ccn([C@@H]2O[C@H](CO)[C@@H](O)[C@H]2O)c(=O)n1 [CYTIDINE] | 100 | 100 | 100 | 100
O=C(Nc1cccc(C2=NCCN2)c1)Nc1cccc(C2=NCCN2)c1 [IMIDOCARB] | 100 | 100 | 100 | 100
CN(C)c1ccc(C(O)(c2ccc(N(C)C)cc2)c2ccc(N(C)C)cc2)cc1 [METHYLROSANILINE] | 100 | 100 | 100 | 66.66

Reference: ChEMBL document CHEMBL3137381, “MMV Box Onchocerca lienalis screening set”
